Experimental data: patent US10670605B2, “Cysteine reactive probes and uses thereof” (The Scripps Research Institute, priority 2015, dated 2020)
Where a name gives a salt, the structure may show the parent alone.

What was measured:
Assay in all cases: isoTOP-ABPP of compound-treated primary human T cells
Type in all cases: cell-based
[1] = target: T1, Cys residues in primary human T cells (Homo sapiens, UniProt O95336); conditions: PGLS C32 (095336)
T1 sequence (O95336 1-258): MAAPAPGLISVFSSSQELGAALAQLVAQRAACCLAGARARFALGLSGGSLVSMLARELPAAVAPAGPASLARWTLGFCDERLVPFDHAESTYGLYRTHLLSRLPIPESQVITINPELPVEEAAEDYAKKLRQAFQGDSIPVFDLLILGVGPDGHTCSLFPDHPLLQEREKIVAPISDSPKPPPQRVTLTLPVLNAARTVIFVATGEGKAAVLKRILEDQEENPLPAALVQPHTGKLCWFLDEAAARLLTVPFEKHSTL

[2] = target: T2, Cys residues in primary human T cells (Homo sapiens, UniProt P11216); conditions: PYGB C326 (P11216)
T2 sequence (P11216 1-843): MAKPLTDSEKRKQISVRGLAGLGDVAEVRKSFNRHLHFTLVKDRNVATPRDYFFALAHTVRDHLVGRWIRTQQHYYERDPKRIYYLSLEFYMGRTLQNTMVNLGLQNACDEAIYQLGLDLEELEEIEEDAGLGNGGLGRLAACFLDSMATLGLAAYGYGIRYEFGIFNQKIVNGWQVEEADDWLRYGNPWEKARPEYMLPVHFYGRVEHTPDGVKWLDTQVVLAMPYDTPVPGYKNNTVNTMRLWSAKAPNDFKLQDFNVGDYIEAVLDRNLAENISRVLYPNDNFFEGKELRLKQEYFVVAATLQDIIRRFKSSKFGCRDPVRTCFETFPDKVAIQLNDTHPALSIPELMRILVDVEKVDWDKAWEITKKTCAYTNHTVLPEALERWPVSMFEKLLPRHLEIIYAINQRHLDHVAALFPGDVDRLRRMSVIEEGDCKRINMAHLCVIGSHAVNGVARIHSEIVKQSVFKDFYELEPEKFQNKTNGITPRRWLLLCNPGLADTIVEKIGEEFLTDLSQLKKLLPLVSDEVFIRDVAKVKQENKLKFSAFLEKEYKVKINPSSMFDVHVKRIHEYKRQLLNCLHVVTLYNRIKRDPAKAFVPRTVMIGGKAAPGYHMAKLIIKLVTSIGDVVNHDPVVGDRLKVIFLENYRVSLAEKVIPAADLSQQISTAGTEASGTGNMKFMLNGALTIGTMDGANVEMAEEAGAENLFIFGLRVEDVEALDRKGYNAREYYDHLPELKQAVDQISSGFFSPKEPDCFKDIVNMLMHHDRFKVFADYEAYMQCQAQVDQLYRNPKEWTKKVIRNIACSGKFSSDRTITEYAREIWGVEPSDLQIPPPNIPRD

[3] = target: T3, Cys residues in primary human T cells (Homo sapiens, UniProt P29590); conditions: PML C479 (P29590)
T3 sequence (P29590 1-882): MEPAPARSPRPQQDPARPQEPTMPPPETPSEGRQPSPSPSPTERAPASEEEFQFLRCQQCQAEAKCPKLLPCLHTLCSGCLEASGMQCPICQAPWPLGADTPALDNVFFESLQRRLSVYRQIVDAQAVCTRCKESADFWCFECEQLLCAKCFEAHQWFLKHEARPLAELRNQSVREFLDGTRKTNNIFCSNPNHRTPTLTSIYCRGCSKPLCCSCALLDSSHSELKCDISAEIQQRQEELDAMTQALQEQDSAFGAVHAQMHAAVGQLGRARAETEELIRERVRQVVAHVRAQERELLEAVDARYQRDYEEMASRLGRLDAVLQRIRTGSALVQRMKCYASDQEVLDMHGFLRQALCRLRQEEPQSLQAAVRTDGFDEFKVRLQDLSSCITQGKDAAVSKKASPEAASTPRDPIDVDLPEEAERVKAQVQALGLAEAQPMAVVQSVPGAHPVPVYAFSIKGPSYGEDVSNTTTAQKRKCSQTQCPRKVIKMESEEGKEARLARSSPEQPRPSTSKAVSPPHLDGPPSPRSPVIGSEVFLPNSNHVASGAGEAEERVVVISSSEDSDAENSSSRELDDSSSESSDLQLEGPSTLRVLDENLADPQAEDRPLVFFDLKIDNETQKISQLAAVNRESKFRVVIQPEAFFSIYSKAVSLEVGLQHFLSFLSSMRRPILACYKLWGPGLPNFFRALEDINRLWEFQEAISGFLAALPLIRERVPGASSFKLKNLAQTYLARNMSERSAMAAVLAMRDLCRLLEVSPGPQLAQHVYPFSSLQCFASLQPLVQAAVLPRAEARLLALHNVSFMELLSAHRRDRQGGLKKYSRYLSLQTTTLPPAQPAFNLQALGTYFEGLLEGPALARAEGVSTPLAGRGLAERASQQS

[4] = target: Cys residues in primary human T cells (Homo sapiens, UniProt P46109); conditions: CRKL C249 (P46109)
Sequence of Cys residues in primary human T cells (Homo sapiens, UniProt P46109) (P46109 whole entry): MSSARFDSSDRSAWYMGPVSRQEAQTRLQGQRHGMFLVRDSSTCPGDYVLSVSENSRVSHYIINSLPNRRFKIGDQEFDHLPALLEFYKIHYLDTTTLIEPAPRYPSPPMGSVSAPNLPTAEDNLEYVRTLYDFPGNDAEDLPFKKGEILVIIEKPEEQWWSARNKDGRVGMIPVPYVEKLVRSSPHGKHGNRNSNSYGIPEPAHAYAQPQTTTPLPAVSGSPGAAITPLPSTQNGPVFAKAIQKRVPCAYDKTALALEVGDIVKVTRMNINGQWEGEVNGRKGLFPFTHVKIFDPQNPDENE

[5] = target: Cys residues in primary human T cells (Homo sapiens, UniProt Q86YS7); conditions: KIAA0528 C993 (Q86YS7)
Sequence of Cys residues in primary human T cells (Homo sapiens, UniProt Q86YS7) (Q86YS7 whole entry): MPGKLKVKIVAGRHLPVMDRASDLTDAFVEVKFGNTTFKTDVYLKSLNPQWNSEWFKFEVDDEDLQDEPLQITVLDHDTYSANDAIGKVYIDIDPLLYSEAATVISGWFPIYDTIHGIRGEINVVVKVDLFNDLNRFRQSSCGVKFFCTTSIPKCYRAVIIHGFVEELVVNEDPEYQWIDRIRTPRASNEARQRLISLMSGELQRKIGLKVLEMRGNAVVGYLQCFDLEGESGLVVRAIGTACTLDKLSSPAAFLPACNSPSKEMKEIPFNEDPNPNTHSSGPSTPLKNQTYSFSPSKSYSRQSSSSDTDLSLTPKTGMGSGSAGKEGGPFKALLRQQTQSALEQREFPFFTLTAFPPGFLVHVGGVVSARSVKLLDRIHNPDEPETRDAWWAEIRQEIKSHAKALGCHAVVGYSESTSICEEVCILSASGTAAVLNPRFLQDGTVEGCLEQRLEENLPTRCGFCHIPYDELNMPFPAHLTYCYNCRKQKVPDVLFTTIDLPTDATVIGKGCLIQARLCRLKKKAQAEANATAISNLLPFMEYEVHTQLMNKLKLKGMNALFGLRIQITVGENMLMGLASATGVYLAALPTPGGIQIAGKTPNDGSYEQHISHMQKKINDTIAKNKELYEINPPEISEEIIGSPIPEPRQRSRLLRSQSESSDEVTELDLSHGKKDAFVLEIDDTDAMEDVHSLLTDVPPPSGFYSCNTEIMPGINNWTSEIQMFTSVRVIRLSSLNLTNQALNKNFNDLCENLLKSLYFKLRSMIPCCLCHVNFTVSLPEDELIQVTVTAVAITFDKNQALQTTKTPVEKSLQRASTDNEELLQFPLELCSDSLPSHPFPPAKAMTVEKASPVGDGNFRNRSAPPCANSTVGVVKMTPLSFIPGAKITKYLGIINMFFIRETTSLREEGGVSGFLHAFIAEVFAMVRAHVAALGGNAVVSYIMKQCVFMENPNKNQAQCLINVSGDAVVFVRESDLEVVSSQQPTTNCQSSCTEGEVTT

[6] = target: Cys residues in primary human T cells (Homo sapiens, UniProt Q8N0Z8); conditions: PUSL1 C292 (Q8N0Z8); DMF 50 μM 4h
Sequence of Cys residues in primary human T cells (Homo sapiens, UniProt Q8N0Z8) (Q8N0Z8 whole entry): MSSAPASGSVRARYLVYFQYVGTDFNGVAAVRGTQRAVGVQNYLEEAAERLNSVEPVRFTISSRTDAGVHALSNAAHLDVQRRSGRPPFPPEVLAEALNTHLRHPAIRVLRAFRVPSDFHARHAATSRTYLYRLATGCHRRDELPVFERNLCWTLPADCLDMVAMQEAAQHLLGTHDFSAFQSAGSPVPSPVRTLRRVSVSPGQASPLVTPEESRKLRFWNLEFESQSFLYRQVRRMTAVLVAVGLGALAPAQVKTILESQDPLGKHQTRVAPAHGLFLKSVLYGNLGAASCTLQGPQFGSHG

[7] = target: Cys residues in primary human T cells (Homo sapiens, UniProt Q8N2G8); conditions: GHDC C502 (Q8N2G8)
Sequence of Cys residues in primary human T cells (Homo sapiens, UniProt Q8N2G8) (Q8N2G8 18-530): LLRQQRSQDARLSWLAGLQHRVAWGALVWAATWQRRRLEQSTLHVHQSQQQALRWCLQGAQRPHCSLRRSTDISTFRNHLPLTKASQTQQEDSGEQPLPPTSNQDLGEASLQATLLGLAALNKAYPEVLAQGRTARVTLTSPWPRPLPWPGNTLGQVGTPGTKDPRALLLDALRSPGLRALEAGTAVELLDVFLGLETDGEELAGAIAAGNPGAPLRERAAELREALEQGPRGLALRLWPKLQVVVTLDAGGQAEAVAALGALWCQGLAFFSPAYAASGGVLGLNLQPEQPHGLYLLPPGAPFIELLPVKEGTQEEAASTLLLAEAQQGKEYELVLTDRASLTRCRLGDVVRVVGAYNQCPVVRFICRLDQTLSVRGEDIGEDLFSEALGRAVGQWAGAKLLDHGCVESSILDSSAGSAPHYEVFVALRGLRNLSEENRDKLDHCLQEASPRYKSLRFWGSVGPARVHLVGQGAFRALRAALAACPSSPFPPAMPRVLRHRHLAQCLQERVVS

[8] = target: Cys residues in primary human T cells (Homo sapiens, UniProt Q8WXH0); conditions: SYNE2 C553 (Q8WXH0)

## COC(=O)/C=C/C(=O)OC [DMF, dimethyl fumarate]
[1]; DMF 10 μM 4h
  R value (DMSO/DMF): 1.9
[1]; DMF 25 μM 4h
  R value (DMSO/DMF): 5.32
[1]; DMF 50 μM 1h
  R value (DMSO/DMF): 3.42
[1]; DMF 50 μM 2h
  R value (DMSO/DMF): 9.49
[1]; DMF 50 μM 4h
  R value (DMSO/DMF): 11.51
[2]; DMF 10 μM 4h
  R value (DMSO/DMF): 1.65
[2]; DMF 25 μM 4h
  R value (DMSO/DMF): 3.53
[2]; DMF 50 μM 1h
  R value (DMSO/DMF): 2.47
[2]; DMF 50 μM 2h
  R value (DMSO/DMF): 3.73
[2]; DMF 50 μM 4h
  R value (DMSO/DMF): 6.76
[3]; DMF 10 μM 4h
  R value (DMSO/DMF): 2.1
[3]; DMF 25 μM 4h
  R value (DMSO/DMF): 2.17
[3]; DMF 50 μM 2h
  R value (DMSO/DMF): 4.57
[4]; DMF 10 μM 4h
  R value (DMSO/DMF): 1.38
[4]; DMF 50 μM 1h
  R value (DMSO/DMF): 2.21
[4]; DMF 50 μM 2h
  R value (DMSO/DMF): 3.21
[4]; DMF 50 μM 4h
  R value (DMSO/DMF): 4.86
[5]; DMF 10 μM 4h
  R value (DMSO/DMF): 1.4
[5]; DMF 50 μM 4h
  R value (DMSO/DMF): 4.38
[6]
  R value (DMSO/DMF): 4.68
[7]; DMF 50 μM 1h
  R value (DMSO/DMF): 4.23
[7]; DMF 50 μM 2h
  R value (DMSO/DMF): 20
[8]; DMF 10 μM 4h
  R value (DMSO/DMF): 1.61
[8]; DMF 50 μM 2h
  R value (DMSO/DMF): 3.29
[8]; DMF 50 μM 4h
  R value (DMSO/DMF): 4.05
